Laboratory results from the RepoRT retention time repository (doi:10.1016/j.chroma.2019.01.023).

Assay: HILIC, Waters ACQUITY UPLC BEH Amide, 150 × 2.1 mm, 1.7 µm, 40 °C, 0.5 mL/min, estimated dead time 0.66 min; A: 5% water + 95% acetonitrile; B: 70% water + 30% acetonitrile + 10 mM ammonium formate, pH 6.5; gradient (min/%B) 0/0 2/0 20/70 23/70 24/0 31/0
Settings: stereoisomer not certain

| LC retention time [min] | Structure (SMILES) |
| --- | --- |
| 1.14 | O=C1CCCCO1 [5-VALEROLACTONE] |
| 8.78 | CC(=O)C(C)O (centres undefined) [ACETOIN] |
| 6.38 | CC(=O)OCC[N+](C)(C)C [ACETYLCHOLINE] |
| 14 | NCCCCN=C(N)N.O=S(=O)(O)O [AGMATINE SULFATE] |
| 1.93 | NC(CC(=O)O)C(=O)O (centres undefined) [ASPARTATE] |
| 7.09 | NCc1ccccc1 [BENZYLAMINE] |
| 10.4 | NCCC(=O)O [BETA-ALANINE] |
| 7.63 | C[N+](C)(C)CC(=O)[O-] [BETAINE] |
| 1.29 | CCCC(=O)[O-] [BUTANOATE] |
| 10.9 | OCC1OC(OC2C(CO)OC(O)C(O)C2O)C(O)C(O)C1O (centres undefined) [CELLOBIOSE] |
| 7.51 | C[N+](C)(C)CCO [CHOLINE] |
| 5.15 | Nc1ccnc(=O)[nH]1 [CYTOSINE] |
| 14.4 | NCCC[C@@H](N)C(=O)O [D-ORNITHINE] |
| 10.8 | C[N+](C)(C)CCCC(=O)[O-] [DEOXYCARNITINE] |
| 8.78 | OCCNCCO [DIETHANOLAMINE] |
| 1.45 | O=C1CCNC(=O)N1 [DIHYDROURACIL] |
| 4.45 | CCCCCCCCCCCCCCCC(=O)OCC(COP(=O)(O)OCCN)OC(=O)CCCCCCCCCCCCCCC (centres undefined) [DIPALMITOYL-PHOSPHOETHANOLAMINE] |
| 3.99 | OCC(O)C(O)CO (centres undefined) [ERYTHRITOL] |
| 10.2 | NCCCC(=O)O [GAMMA-AMINOBUTYRATE] |
| 11.3 | NC1C(O)OC(CO)C(O)C1O (centres undefined) [GLUCOSAMINE] |
| 0.89 | COc1ccccc1O [GUAIACOL] |

| LC retention time [min] | Structure (SMILES) |
| --- | --- |
| 0.91 | CCCCCC(=O)[O-] [HEXANOATE] |
| 9.43 | NCCc1cnc[nH]1 [HISTAMINE] |
| 9.82 | NC(CO)Cc1cnc[nH]1 (centres undefined) [HISTIDINOL] |
| 8.79 | CC(C)C(=O)O [ISOBUTYRATE] |
| 1.86 | CC(C)CC(=O)C(=O)O [KETOLEUCINE] |
| 9.76 | C[C@H](N)C(=O)O [L-ALANINE] |
| 6.24 | CCCCCCCCCCCC(=O)OC(CC(=O)[O-])C[N+](C)(C)C (centres undefined) [LAUROYLCARNITINE] |
| 2.1 | NC(=O)C=CC(=O)O [MALEAMATE] |
| 1.63 | COC(=O)CC(C)=O [METHYL ACETOACETATE] |
| 2.48 | COC(=O)CCCC(=O)O [MONOMETHYLGLUTARATE] |
| 0.83 | C[N+](C)(C)CCCCC(N)C(=O)O (centres undefined) [N,N,N-TRIMETHYLLYSINE] |
| 13 | CN(C)C(N)=NCCCC(N)C(=O)O (centres undefined) [N,N-DIMETHYLARGININE] |
| 8.45 | CC(=O)NCCCCN [N-ACETYLPUTRESCINE] |
| 1.38 | NC(=O)c1cccnc1 [NICOTINAMIDE] |
| 2.9 | CN1CCCC1c1cccnc1 (centres undefined) [NICOTINE] |
| 5.9 | CCCCCCCCCCCCCCCC(=O)OC(CC(=O)[O-])C[N+](C)(C)C (centres undefined) [PALMITOYLCARNITINE] |
| 8.25 | CCCCC(=O)[O-] [PENTANOATE] |
| 0.94 | NCCCCN [PUTRESCINE] |
| 0.91 | c1ccc2ncccc2c1 [QUINOLINE] |
| 9.54 | CNCC(=O)O [SARCOSINE] |

| Structure (SMILES) | LC retention time [min] |
| --- | --- |
| Nc1ccccc1C(=O)[O-] [ANTHRANILATE] | 1.11 |
| NC1CCSC1=O (centres undefined) [HOMOCYSTEINE THIOLACTONE] | 1.05 |
| CN=C(N)N [METHYLGUANIDINE] | 8 |
| CN(C)c1ccc(N)cc1 [N,N-DIMETHYL-1,4-PHENYLENEDIAMINE] | 0.91 |
| CNCCc1c[nH]c2ccccc12 [N-METHYLTRYPTAMINE] | 6.64 |
| NCCCNCCCN [NORSPERMIDINE] | 8.25 |
| NCCc1ccccc1 [PHENETHYLAMINE] | 7 |
| NCC(O)c1ccccc1 (centres undefined) [PHENYLETHANOLAMINE] | 7.74 |
